Columns and labels:
[1] = system: OCI-Ly1 cells; assay: Trypan blue exclusion and Annexin V+ DAPI- apoptosis over 14 days, control line; format: cell-based, human; settings: treated daily at the higher doses used for TMD8, 14 days
Experimental: (§1) Cell proliferation was examined using the CFSE dilution assay by flow cytometry on viable cells at 48, 72 and 96 h. […] Trypan blue exclusion and apoptosis assessed by Annexin V^+ DAPI^− flow cytometry was measured every 48 hr for a period of 14 days.
Apoptosis was assessed by AnnexinV-APC/DAPI (BD Pharmingen) staining followed by flow cytometry.

[2] = molecular target: Caspase-8 (Homo sapiens, UniProt Q14790); assay: Caspase selectivity; format: biochemical
[3] = system: Caspase-3/7 activity; assay: Caspase-3/7 activity or apoptosis in cell-based assays; settings: concentrations which suppress MALT1
[4] = system: ABC-DLBCL MALT1 independent cell lines U2932 and HLY-1; assay: Growth inhibition, MALT1 independent ABC-DLBCL cell lines; format: cell-based, human; settings: increasing concentrations, single dose, 48 hr
Experimental: Endogenous MALT1 activity was evaluated by Western blotting for A20, BCL10 and CYLD; and NF-κB activation, by phospho-IκB-α and total IκB-α. Dependence on MALT1 proteolytic activity for proliferation was tested by 50[…]μM Z-VRPR-FMK treatment for 48 hr. […] The U2932 and HLY1 ABC-DLBCL cell lines harbor mutations in TAK1 and A20, which activate NF-κB signaling downstream of MALT1.
Cell proliferation was determined by ATP quantification using a luminescent method (CellTiter-Glo, Promega, Madison, Wis.) and Trypan blue dye-exclusion (Sigma, St. Louis, Mo.). Cell viability in drug-treated cells was normalized to their respective controls (fractional viability) and results are given as 1-fractional viability. […]
DLBCL cell lines were grown in exponential growth conditions during the 48 hr of treatment. Cell proliferation was determined by ATP quantification using a luminescent method (CellTiter-Glo, Promega, Madison, Wis.) and Trypan blue dye-exclusion (Sigma, St. Louis, Mo.). Luminescence was measured using the Synergy4 microplate reader (BioTek Instruments, Winooski, Vt.). Standard curves for each cell line were calculated by plotting the cell number (determined by the Trypan blue method) against their luminescence values and number of cells was calculated accordingly. […]

[5] = molecular target: T1, paracaspase domain of MALT1 (residues 329-728) (Homo sapiens, UniProt Q9UDY8); assay: HSQC NMR binding; settings: HSQC titration
T1 construct: labeled MALT1 (329-728) was expressed in BL21 (DE3) E. coli; made in house; host or cells: E. coli BL21 (DE3)
Experimental: Uniformly ^15N and ^13C labeled MALT1 (329-728) was expressed in BL21 (DE3) E. coli growing in M9 medium containing 1 g/l [^15N]ammonium chloride and 3 g/l [^13C]glucose (Cambridge Isotope Labs, Andover, Mass.) and purified from E. coli cell lysate as described in (Wiesmann et al., 2012).
Standard 2D ^1H ^13C NMR spectra of MALT1 (329-728) were recorded in samples containing 10.0 mg/ml protein in 50 mM HEPES (pH 7.5), 50 mM NaCl, and 10% D2O. NMR spectroscopy experiments were recorded on Bruker AV 500 MHz spectrometer (Bruker, Billerica, Mass.), at 310K.
Standard 2D ^1H ^15N HSQC spectra of MALT1 (329-728) were recorded in samples containing 70 μM protein in 25 mM Tris pH 7.5, 250 mM NaCl, 5 mM DTT, 10% D2O, 0.02% NaN3, 2% DMSO. HSQCs were run on a 600 MHz Varian (Varian, Palo Alto, Calif.) at 37° C.

[6] = system: MALT1^WT NF-κB activation; assay: NF-κB reporter assay in 293T cells, PMA/ionomycin, BCL10 and MALT1 WT; format: cell-based; settings: pre-treatment
Description: (§2) Antigen receptor-mediated NF-κB signaling partly depends on MALT1 activity (Ruefli-Brasse et al., 2003; Ruland et al., 2003). […] First, 293T cells were transfected with the NF-κB reporter vector (NF-κB)5-luc2CP-pGL4 (harboring 5 copies of the NF-κB consensus response element and a destabilized Firefly luciferase) and TK-pRL control together with plasmids expressing BCL10 and either MALT1^WT or MALT1^C464A. […] HBL-1 was transfected with the reporter construct (NF-κB)5-luc2CP-pGL4 and TK-pRL control.
(§3) Reporter assays were performed in 293T cells seeded at a density of 2×10^5 cells per well of a 12-well dish. 100 ng of (NF-κB)5-Luc2CP-pGL4 and 10 ng of TK-Renilla internal control plasmid were cotransfected along with 25 ng of the indicated plasmids (MIGR1-MALT1^WT or MIGR1-MALT1^C464A and pcDNA4-Flag-Bcl10) using Lipofectamine 2000 (Invitrogen). Lysates were submitted to dual luciferase assays following manufacturer's protocol (Promega). In HBL-1, 5 μg of (NF-κB)5-Luc2CP-pGL4 and 50 ng of TK-Renilla internal control plasmid per 5×10^6 cells were cotransfected using nucleofection (Amaxa, Lonza, Basel, Switzerland). Forty-eight hours after transfection, cells were plated at a density of 5×10^4 cells per well of a 24-well plate and treated as indicated. Lysates were submitted to dual luciferase assays following manufacturer's protocol (Promega).

[7] = system: NF-κB reporter activity; assay: NF-κB reporter assay in HBL-1 cells; format: cell-based, human
Description: as §2, §3

[8] = system: HBL-1, TMD8 and OCI-Ly10; assay: CFSE dilution assay by flow cytometry, ABC-DLBCL lines; format: cell-based, human; settings: viable cells at 48, 72 and 96 h
Experimental: as §1
CFSE covalently labels long-lived intracellular molecules with carboxyfluorescein. Following each cell division, fluorescent molecules dilute in daughter cells, allowing comparative study of the kinetics of cell division. Cells were stained with DAPI (Sigma), followed by flow cytometry. DAPI^neg cells were gated for analysis.

Caspase-8, sequence (Q14790 217-374 limits assumed): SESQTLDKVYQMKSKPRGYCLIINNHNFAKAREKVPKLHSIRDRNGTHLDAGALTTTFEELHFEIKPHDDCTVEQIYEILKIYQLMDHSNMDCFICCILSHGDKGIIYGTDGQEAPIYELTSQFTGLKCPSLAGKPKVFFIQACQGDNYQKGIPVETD
Caspase-8, sequence (Q14790 385-479 limits assumed): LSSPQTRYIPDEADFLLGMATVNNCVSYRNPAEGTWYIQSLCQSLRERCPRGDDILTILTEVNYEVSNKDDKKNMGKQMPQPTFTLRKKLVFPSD
T1 sequence (Q9UDY8 329-728): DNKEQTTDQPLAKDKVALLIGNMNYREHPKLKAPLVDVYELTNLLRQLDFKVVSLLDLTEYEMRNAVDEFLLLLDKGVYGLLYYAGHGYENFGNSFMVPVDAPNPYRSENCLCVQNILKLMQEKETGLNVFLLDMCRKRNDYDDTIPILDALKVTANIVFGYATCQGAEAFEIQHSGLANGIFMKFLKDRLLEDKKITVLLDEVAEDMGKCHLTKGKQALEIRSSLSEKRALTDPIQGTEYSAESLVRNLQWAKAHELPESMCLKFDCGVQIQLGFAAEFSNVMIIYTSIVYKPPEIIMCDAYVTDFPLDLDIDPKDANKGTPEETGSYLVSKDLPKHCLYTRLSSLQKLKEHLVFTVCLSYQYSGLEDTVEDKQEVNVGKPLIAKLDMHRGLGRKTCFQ

COCCOc1nc(-c2ccc(Cl)c(Cl)c2)n(-c2ccc(NC(=O)CCl)cc2)n1 [MI-2]
viability and apoptosis [1]: no effect | activity against Caspase-8 [2]: little activity | inhibition of Caspase-3/7 activity or apoptosis [3]: did not inhibit | growth inhibition [4]: resistant | binding by NMR spectroscopy [5]: robust interaction | NF-κB induction by PMA/ionomycin stimulation [6]: significantly inhibited NF-κB induction | reduction in NF-κB reporter activity ([7]; HBL-1, 8 hr): 20% | reduction in NF-κB reporter activity ([7]; HBL-1, 24 hr): 50% | cell proliferation (CFSE dilution) [8]: substantially inhibited proliferation
